Measured values: US6355799B1, “Substituted benzene compounds, process for their preparation, and herbicidal and defoliant compositions containing them” (ISK Americas Incorporated, priority 1997, dated 2002)

Experiments:
Assay type in all cases: in vivo
[1] = system: redroot pigweed (Amaranthus retroflexus, AMARE); test: Pre-emerge test, greenhouse herbicide activity screening; conditions: pre-emerge, phytotoxicity rating 0-100 at 14 days after application
Method in brief: (§1)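 Plants grown in 10 cm pots of sandy loam mix received acetone-dissolved compounds through a moving flat-fan nozzle. Doses ranged from 15 to 1000 g ai/ha. Pre-emerge pots were seeded one day earlier, post-emerge pots 8–21 days earlier. Fourteen days on, each pot was graded 0–100 for damage.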

[2] = system: barnyardgrass (Echinochloa crus-galli, ECHCG); test: as above; conditions: pre-emerge, phytotoxicity rating 0-100 at 14 days after application
Method in brief: (§2)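 Rating: 0–100 visual injury, 14 DAA. Application: acetone, 187 l/ha, 15–1000 g ai/ha, flat-fan track sprayer with nozzle 40–45 cm above soil or canopy. Post-emerge runs used 0.25% v/v surfactant on 2–3 leaf plants.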

[3] = system: green foxtail (Setaria viridis, SETVI); test: as above; conditions: pre-emerge, phytotoxicity rating 0-100 at 14 days after application
Method in brief: as §2

[4] = system: ivyleaf morningglory (Ipomoea hederacea, IPOHE); test: as above; conditions: pre-emerge, phytotoxicity rating 0-100 at 14 days after application
Method in brief: as §2

[5] = system: johnsongrass (Sorghum halepense, SORHA); test: as above; conditions: pre-emerge, phytotoxicity rating 0-100 at 14 days after application
Method in brief: as §2

[6] = system: lambsquarters (Chenopodium album, CHEAL); test: as above; conditions: pre-emerge, phytotoxicity rating 0-100 at 14 days after application
Method in brief: as §2

[7] = system: large crabgrass (Digitaria sanguinalis, DIGSA); test: as above; conditions: pre-emerge, phytotoxicity rating 0-100 at 14 days after application
Method in brief: as §2

[8] = system: sicklepod (Cassia obtusifolia, CASOB); test: as above; conditions: pre-emerge, phytotoxicity rating 0-100 at 14 days after application
Method in brief: as §2

[9] = system: velvetleaf (Abutilon theophrasti, ABUTH); test: as above; conditions: pre-emerge, phytotoxicity rating 0-100 at 14 days after application
Method in brief: as §2

[10] = system: field corn (Zea mays L., var. Dekalb 535, CORN); test: Pre-emerge test, crop safety; conditions: crop damage, pre-emerge, phytotoxicity rating 0-100 at 14 days after application
Method in brief: (§3)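 Compounds in acetone were track-sprayed at 15-1000 g ai/ha (187 l/ha) on sandy loam pots: pre-emerge one day after seeding, post-emerge at 2-3 leaf stage with 0.25% v/v non-ionic surfactant. Phytotoxicity was rated 14 days later on a 0 (no damage) to 100 (complete death) scale.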

[11] = system: upland rice (Oryza sp., var. Tebonnet, RICE); test: Pre-emerge test, crop safety; conditions: crop damage, pre-emerge, phytotoxicity rating 0-100 at 14 days after application
Method in brief: as §3

[12] = system: barnyardgrass (Echinochloa crus-galli, ECHCG); test: Post-emerge test, greenhouse herbicide activity screening; conditions: post-emerge, phytotoxicity rating 0-100 at 14 days after application
Method in brief: (§4)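 Each test used a mechanized track sprayer delivering 187 l/ha of acetone solution at 15–1000 g ai/ha. Post-emerge foliage at 2–3 leaves was treated with added 0.25% v/v non-ionic surfactant and bottom-watered only. Injury was assessed on day 14, where 100 means total kill.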

[13] = system: green foxtail (Setaria viridis, SETVI); test: as above; conditions: post-emerge, phytotoxicity rating 0-100 at 14 days after application
Method in brief: as §4

[14] = system: ivyleaf morningglory (Ipomoea hederacea, IPOHE); test: as above; conditions: post-emerge, phytotoxicity rating 0-100 at 14 days after application
Method in brief: as §4

[15] = system: johnsongrass (Sorghum halepense, SORHA); test: as above; conditions: post-emerge, phytotoxicity rating 0-100 at 14 days after application
Method in brief: as §4

[16] = system: lambsquarters (Chenopodium album, CHEAL); test: as above; conditions: post-emerge, phytotoxicity rating 0-100 at 14 days after application
Method in brief: as §4

[17] = system: large crabgrass (Digitaria sanguinalis, DIGSA); test: as above; conditions: post-emerge, phytotoxicity rating 0-100 at 14 days after application
Method in brief: as §4

[18] = system: redroot pigweed (Amaranthus retroflexus, AMARE); test: as above; conditions: post-emerge, phytotoxicity rating 0-100 at 14 days after application
Method in brief: as §4

[19] = system: sicklepod (Cassia obtusifolia, CASOB); test: as above; conditions: post-emerge, phytotoxicity rating 0-100 at 14 days after application
Method in brief: as §4

[20] = system: velvetleaf (Abutilon theophrasti, ABUTH); test: as above; conditions: post-emerge, phytotoxicity rating 0-100 at 14 days after application
Method in brief: as §4

[21] = system: field corn (Zea mays L., var. Dekalb 535, CORN); test: Post-emerge test, crop safety; conditions: post-emerge, crop damage rating 0-100 at 14 days after application
Method in brief: as §1

[22] = system: upland rice (Oryza sp., var. Tebonnet, RICE); test: Post-emerge test, crop safety; conditions: post-emerge, crop damage rating 0-100 at 14 days after application
Method in brief: as §1

COc1c(Cl)cc(F)c(-n2c(=O)n3n(c2=O)CCCC3)c1NC(=O)c1ccc(F)cc1F [9-16]
Pre-emerge Herbicidal Activity AMARE ([1]; rate 63 g ai/ha): 70 | Pre-emerge Herbicidal Activity AMARE ([1]; rate 250 g ai/ha): 100 | Pre-emerge Herbicidal Activity ECHCG ([2]; rate 63 g ai/ha): 0 | Pre-emerge Herbicidal Activity ECHCG ([2]; rate 250 g ai/ha): 40 | Pre-emerge Herbicidal Activity SETVI ([3]; rate 63 g ai/ha): 39 | Pre-emerge Herbicidal Activity SETVI ([3]; rate 250 g ai/ha): 70 | Pre-emerge Herbicidal Activity IPOHE ([4]; rate 63 g ai/ha): 70 | Pre-emerge Herbicidal Activity IPOHE ([4]; rate 250 g ai/ha): 70 | Pre-emerge Herbicidal Activity SORHA ([5]; rate 63 g ai/ha): 10 | Pre-emerge Herbicidal Activity SORHA ([5]; rate 250 g ai/ha): 40 | Pre-emerge Herbicidal Activity CHEAL ([6]; rate 63 g ai/ha): 100 | Pre-emerge Herbicidal Activity CHEAL ([6]; rate 250 g ai/ha): 100 | Pre-emerge Herbicidal Activity DIGSA ([7]; rate 63 g ai/ha): 10 | Pre-emerge Herbicidal Activity DIGSA ([7]; rate 250 g ai/ha): 40 | Pre-emerge Herbicidal Activity CASOB ([8]; rate 63 g ai/ha): 20 | Pre-emerge Herbicidal Activity CASOB ([8]; rate 250 g ai/ha): 60 | Pre-emerge Herbicidal Activity ABUTH ([9]; rate 63 g ai/ha): 100 | Pre-emerge Herbicidal Activity ABUTH ([9]; rate 250 g ai/ha): 100 | Pre-emerge Herbicidal Activity CORN ([10]; rate 63 g ai/ha): 0 | Pre-emerge Herbicidal Activity CORN ([10]; rate 250 g ai/ha): 90 | Pre-emerge Herbicidal Activity RICE ([11]; rate 63 g ai/ha): 80 | Pre-emerge Herbicidal Activity RICE ([11]; rate 250 g ai/ha): 90 | Post-emerge Herbicidal Activity ECHCG ([12]; 63 g ai/ha): 0 | Post-emerge Herbicidal Activity ECHCG ([12]; 250 g ai/ha): 10 | Post-emerge Herbicidal Activity SETVI ([13]; 63 g ai/ha): 0 | Post-emerge Herbicidal Activity SETVI ([13]; 250 g ai/ha): 20 | Post-emerge Herbicidal Activity IPOHE ([14]; 63 g ai/ha): 90 | Post-emerge Herbicidal Activity IPOHE ([14]; 250 g ai/ha): 100 | Post-emerge Herbicidal Activity SORHA ([15]; 63 g ai/ha): 0 | Post-emerge Herbicidal Activity SORHA ([15]; 250 g ai/ha): 0 | Post-emerge Herbicidal Activity CHEAL ([16]; 63 g ai/ha): 65 | Post-emerge Herbicidal Activity CHEAL ([16]; 250 g ai/ha): 80 | Post-emerge Herbicidal Activity DIGSA ([17]; 63 g ai/ha): 10 | Post-emerge Herbicidal Activity DIGSA ([17]; 250 g ai/ha): 0 | Post-emerge Herbicidal Activity AMARE ([18]; 63 g ai/ha): 30 | Post-emerge Herbicidal Activity AMARE ([18]; 250 g ai/ha): 75 | Post-emerge Herbicidal Activity CASOB ([19]; 63 g ai/ha): 50 | Post-emerge Herbicidal Activity CASOB ([19]; 250 g ai/ha): 85 | Post-emerge Herbicidal Activity ABUTH ([20]; 63 g ai/ha): 100 | Post-emerge Herbicidal Activity ABUTH ([20]; 250 g ai/ha): 100 | Post-emerge Herbicidal Activity CORN ([21]; 63 g ai/ha): 5 | Post-emerge Herbicidal Activity CORN ([21]; 250 g ai/ha): 65 | Post-emerge Herbicidal Activity RICE ([22]; 63 g ai/ha): 30 | Post-emerge Herbicidal Activity RICE ([22]; 250 g ai/ha): 70

O=C(Nc1cc(Cl)ccc1-n1c(=O)n2n(c1=O)CCCC2)c1ccc2ccccc2c1 [9-19]
Pre-emerge Herbicidal Activity AMARE ([1]; rate 63 g ai/ha): 100 | Pre-emerge Herbicidal Activity AMARE ([1]; rate 250 g ai/ha): 100 | Pre-emerge Herbicidal Activity ECHCG ([2]; rate 63 g ai/ha): 0 | Pre-emerge Herbicidal Activity ECHCG ([2]; rate 250 g ai/ha): 0 | Pre-emerge Herbicidal Activity SETVI ([3]; rate 63 g ai/ha): 0 | Pre-emerge Herbicidal Activity SETVI ([3]; rate 250 g ai/ha): 60 | Pre-emerge Herbicidal Activity IPOHE ([4]; rate 63 g ai/ha): 30 | Pre-emerge Herbicidal Activity IPOHE ([4]; rate 250 g ai/ha): 0 | Pre-emerge Herbicidal Activity SORHA ([5]; rate 63 g ai/ha): 0 | Pre-emerge Herbicidal Activity SORHA ([5]; rate 250 g ai/ha): 20 | Pre-emerge Herbicidal Activity CHEAL ([6]; rate 63 g ai/ha): 100 | Pre-emerge Herbicidal Activity CHEAL ([6]; rate 250 g ai/ha): 100 | Pre-emerge Herbicidal Activity DIGSA ([7]; rate 63 g ai/ha): 0 | Pre-emerge Herbicidal Activity DIGSA ([7]; rate 250 g ai/ha): 80 | Pre-emerge Herbicidal Activity CASOB ([8]; rate 63 g ai/ha): 0 | Pre-emerge Herbicidal Activity CASOB ([8]; rate 250 g ai/ha): 20 | Pre-emerge Herbicidal Activity ABUTH ([9]; rate 63 g ai/ha): 100 | Pre-emerge Herbicidal Activity ABUTH ([9]; rate 250 g ai/ha): 100 | Pre-emerge Herbicidal Activity CORN ([10]; rate 63 g ai/ha): 0 | Pre-emerge Herbicidal Activity CORN ([10]; rate 250 g ai/ha): 0 | Pre-emerge Herbicidal Activity RICE ([11]; rate 63 g ai/ha): 30 | Pre-emerge Herbicidal Activity RICE ([11]; rate 250 g ai/ha): 50 | Post-emerge Herbicidal Activity ECHCG ([12]; 63 g ai/ha): 0 | Post-emerge Herbicidal Activity ECHCG ([12]; 250 g ai/ha): 10 | Post-emerge Herbicidal Activity SETVI ([13]; 63 g ai/ha): 10 | Post-emerge Herbicidal Activity SETVI ([13]; 250 g ai/ha): 20 | Post-emerge Herbicidal Activity IPOHE ([14]; 63 g ai/ha): 75 | Post-emerge Herbicidal Activity IPOHE ([14]; 250 g ai/ha): 90 | Post-emerge Herbicidal Activity SORHA ([15]; 63 g ai/ha): 0 | Post-emerge Herbicidal Activity SORHA ([15]; 250 g ai/ha): 0 | Post-emerge Herbicidal Activity CHEAL ([16]; 63 g ai/ha): 100 | Post-emerge Herbicidal Activity CHEAL ([16]; 250 g ai/ha): 100 | Post-emerge Herbicidal Activity DIGSA ([17]; 63 g ai/ha): 0 | Post-emerge Herbicidal Activity DIGSA ([17]; 250 g ai/ha): 10 | Post-emerge Herbicidal Activity AMARE ([18]; 63 g ai/ha): 80 | Post-emerge Herbicidal Activity AMARE ([18]; 250 g ai/ha): 98 | Post-emerge Herbicidal Activity CASOB ([19]; 63 g ai/ha): 80 | Post-emerge Herbicidal Activity CASOB ([19]; 250 g ai/ha): 95 | Post-emerge Herbicidal Activity ABUTH ([20]; 63 g ai/ha): 100 | Post-emerge Herbicidal Activity ABUTH ([20]; 250 g ai/ha): 100 | Post-emerge Herbicidal Activity CORN ([21]; 63 g ai/ha): 10 | Post-emerge Herbicidal Activity CORN ([21]; 250 g ai/ha): 10 | Post-emerge Herbicidal Activity RICE ([22]; 63 g ai/ha): 15 | Post-emerge Herbicidal Activity RICE ([22]; 250 g ai/ha): 25
